Source: US10758534B2 (Vertex Pharmaceuticals Incorporated, priority 2014, dated 2020)

Target: T1, F508del (Homo sapiens, UniProt P13569, DEL508-508)
T1 construct: expressed in transfected cells
Assay: Protocol 1: membrane potential optical assay (FLIPR III, voltage sensing dye), identification of potentiator compounds
Format: cell-based
Details: Table 3, compounds of Table 1
Method in brief: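 NIH3T3 F508del cells, 27° C × 24 hrs; compound/DMSO pretreat → redistribution dye load → single forskolin addition with Cl⁻ gradient (gluconate-substituted bath, HEPES pH 7.4). FLIPR III membrane-potential fluorescence read.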

T1 sequence (P13569 with tags, fused parts or gaps DEL508-508): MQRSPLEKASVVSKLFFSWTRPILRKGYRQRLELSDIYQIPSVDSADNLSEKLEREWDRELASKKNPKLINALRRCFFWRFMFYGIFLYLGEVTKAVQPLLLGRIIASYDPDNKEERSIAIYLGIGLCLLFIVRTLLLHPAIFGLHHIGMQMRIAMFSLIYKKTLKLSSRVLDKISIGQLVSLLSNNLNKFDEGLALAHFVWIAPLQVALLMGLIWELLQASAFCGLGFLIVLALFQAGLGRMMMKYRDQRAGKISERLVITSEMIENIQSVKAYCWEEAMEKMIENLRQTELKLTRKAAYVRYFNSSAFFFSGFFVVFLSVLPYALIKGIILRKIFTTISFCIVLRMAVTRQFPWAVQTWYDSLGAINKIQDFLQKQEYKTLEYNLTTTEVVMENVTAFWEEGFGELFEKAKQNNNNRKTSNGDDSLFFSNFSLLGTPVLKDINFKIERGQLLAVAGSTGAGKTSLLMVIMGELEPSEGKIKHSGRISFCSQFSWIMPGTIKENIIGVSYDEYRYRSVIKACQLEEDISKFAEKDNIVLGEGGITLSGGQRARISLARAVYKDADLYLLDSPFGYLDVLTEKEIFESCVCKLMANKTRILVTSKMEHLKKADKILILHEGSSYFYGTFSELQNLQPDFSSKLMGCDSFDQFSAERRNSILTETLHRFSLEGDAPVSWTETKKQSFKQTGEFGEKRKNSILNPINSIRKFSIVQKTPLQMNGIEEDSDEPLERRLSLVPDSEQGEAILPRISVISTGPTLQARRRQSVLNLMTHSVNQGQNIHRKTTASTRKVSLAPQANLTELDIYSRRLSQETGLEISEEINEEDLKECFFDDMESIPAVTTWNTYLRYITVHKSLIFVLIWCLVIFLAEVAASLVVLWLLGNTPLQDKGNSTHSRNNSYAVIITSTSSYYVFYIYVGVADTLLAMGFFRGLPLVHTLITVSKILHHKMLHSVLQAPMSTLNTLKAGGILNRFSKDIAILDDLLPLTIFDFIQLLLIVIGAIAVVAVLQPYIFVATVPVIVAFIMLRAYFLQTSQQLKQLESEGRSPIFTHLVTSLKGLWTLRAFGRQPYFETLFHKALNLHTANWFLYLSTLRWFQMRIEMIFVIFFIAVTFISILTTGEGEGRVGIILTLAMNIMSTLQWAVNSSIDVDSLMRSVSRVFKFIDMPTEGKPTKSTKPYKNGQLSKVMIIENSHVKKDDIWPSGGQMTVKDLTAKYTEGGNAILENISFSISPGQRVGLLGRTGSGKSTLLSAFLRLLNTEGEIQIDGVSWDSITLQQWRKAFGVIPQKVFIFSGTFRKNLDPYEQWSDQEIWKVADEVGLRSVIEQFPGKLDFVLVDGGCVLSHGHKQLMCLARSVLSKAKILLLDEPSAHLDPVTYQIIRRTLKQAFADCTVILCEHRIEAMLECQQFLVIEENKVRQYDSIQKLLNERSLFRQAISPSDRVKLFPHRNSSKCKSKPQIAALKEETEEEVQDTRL

Row | SMILES | EC30
1 | COc1cc(F)c(-c2ccc(C(=O)NS(=O)(=O)c3ccc[nH]c3=O)c(N3C[C@@H](C)CC3(C)C)n2)cc1F [Compound 1913, 6-(2,5-difluoro-4-methoxy-phenyl)-N-[(2-oxo-1H-pyridin-3-yl)sulfonyl]-2-[(4S)-2,2,4-trimethylpyrrolidin-1-yl]pyridine-3-carboxamide] | +++ (“+++” means <3 uM)
2 | COc1cc(-c2ccc(C(=O)NS(=O)(=O)c3ccc[nH]c3=O)c(N3C[C@@H](C)CC3(C)C)n2)cc(F)c1F [Compound 1914, 6-(3,4-difluoro-5-methoxy-phenyl)-N-[(2-oxo-1H-pyridin-3-yl)sulfonyl]-2-[(4S)-2,2,4-trimethylpyrrolidin-1-yl]pyridine-3-carboxamide] | +++ (“+++” means <3 uM)
3 | CCN(CC)c1ncc(-c2ccc(C(=O)NS(=O)(=O)c3cccc(N)n3)c(N3C[C@@H](C)CC3(C)C)n2)cc1C [Compound 1915, N-[(6-amino-2-pyridyl)sulfonyl]-6-[6-(diethylamino)-5-methyl-3-pyridyl]-2-[(4S)-2,2,4-trimethylpyrrolidin-1-yl]pyridine-3-carboxamide] | +++ (“+++” means <3 uM)
4 | CCCC/C=C/c1cnc(N2CC(C)CC2(C)C)c(C(=O)NS(=O)(=O)c2cccc(N)n2)c1 (stereo not shown) [Compound 1916, N-[(6-amino-2-pyridyl)sulfonyl]-5-[(E)-hex-1-enyl]-2-(2,2,4-trimethylpyrrolidin-1-yl)pyridine-3-carboxamide] | +++ (“+++” means <3 uM)
5 | CC1CN(c2ncccc2C(=O)NS(=O)(=O)c2cccc(OC(C)c3ccccc3)n2)C(C)(C)C1 (stereo not shown) [Compound 1917, N—[[6-(1-phenylethoxy)-2-pyridyl]sulfonyl]-2-(2,2,4-trimethylpyrrolidin-1-yl)pyridine-3-carboxamide] | +++ (“+++” means <3 uM)
6 | CC1CN(c2ncc(-c3cccc(OC4CCCC4)c3)cc2C(=O)NS(=O)(=O)c2cccc(N)n2)C(C)(C)C1 (stereo not shown) [Compound 1918, N-[(6-amino-2-pyridyl)sulfonyl]-5-[3-(cyclopentoxy)phenyl]-2-(2,2,4-trimethylpyrrolidin-1-yl)pyridine-3-carboxamide] | +++ (“+++” means <3 uM)
7 | CC1CN(c2ncccc2C(=O)NS(=O)(=O)c2cccc(OC(C)C3CCCCC3)n2)C(C)(C)C1 (stereo not shown) [Compound 1919, N—[[6-(1-cyclohexylethoxy)-2-pyridyl]sulfonyl]-2-(2,2,4-trimethylpyrrolidin-1-yl)pyridine-3-carboxamide] | +++ (“+++” means <3 uM)
8 | COC1CC=C(c2cnc(N3CC(C)CC3(C)C)c(C(=O)NS(=O)(=O)c3cccc(N)n3)c2)CC1 (stereo not shown) [Compound 1920, N-[(6-amino-2-pyridyl)sulfonyl]-5-(4-methoxycyclohexen-1-yl)-2-(2,2,4-trimethylpyrrolidin-1-yl)pyridine-3-carboxamide] | ++ (“++” means between 3 uM and 10 uM)
9 | CC1CN(c2ncc(-c3ccccc3C(F)(F)F)cc2C(=O)NS(=O)(=O)c2cccc(N)n2)C(C)(C)C1 (stereo not shown) [Compound 1921, N-[(6-amino-2-pyridyl)sulfonyl]-5-[2-(trifluoromethyl)phenyl]-2-(2,2,4-trimethylpyrrolidin-1-yl)pyridine-3-carboxamide] | +++ (“+++” means <3 uM)
10 | Cc1ccc(-c2ccc(C(=O)NS(=O)(=O)c3cccc(N)n3)c(N3C[C@@H](C)CC3(C)C)n2)cc1F [Compound 1922, N-[(6-amino-2-pyridyl)sulfonyl]-6-(3-fluoro-4-methyl-phenyl)-2-[(4S)-2,2,4-trimethylpyrrolidin-1-yl]pyridine-3-carboxamide] | +++ (“+++” means <3 uM)
11 | Cc1cc(-c2ccc(C(=O)NS(=O)(=O)c3cccnc3N)c(N3C[C@@H](C)CC3(C)C)n2)cc(C)c1O [Compound 1923, N-[(2-amino-3-pyridyl)sulfonyl]-6-(4-hydroxy-3,5-dimethyl-phenyl)-2-[(4S)-2,2,4-trimethylpyrrolidin-1-yl]pyridine-3-carboxamide] | ++ (“++” means between 3 uM and 10 uM)
12 | CCOc1ccc(Oc2cccc(S(=O)(=O)NC(=O)c3cccnc3N3CC(C)CC3(C)C)n2)cc1 (stereo not shown) [Compound 1924, N—[[6-(4-ethoxyphenoxy)-2-pyridyl]sulfonyl]-2-(2,2,4-trimethylpyrrolidin-1-yl)pyridine-3-carboxamide] | +++ (“+++” means <3 uM)
13 | C[C@@H]1CN(c2nc(-c3cccc(F)c3)ccc2C(=O)NS(=O)(=O)c2ccc[nH]c2=O)C(C)(C)C1 [Compound 1925, 6-(3-fluorophenyl)-N-[(2-oxo-1H-pyridin-3-yl)sulfonyl]-2-[(4S)-2,2,4-trimethylpyrrolidin-1-yl]pyridine-3-carboxamide] | +++ (“+++” means <3 uM)
14 | CC1CN(c2ncccc2C(=O)NS(=O)(=O)c2cccc(Oc3cccc(C(C)(C)C)c3)n2)C(C)(C)C1 (stereo not shown) [Compound 1926, N—[[6-(3-tert-butylphenoxy)-2-pyridyl]sulfonyl]-2-(2,2,4-trimethylpyrrolidin-1-yl)pyridine-3-carboxamide] | +++ (“+++” means <3 uM)
15 | COc1cccc(-c2ccc(C(=O)NS(=O)(=O)c3ccc[nH]c3=O)c(N3C[C@@H](C)CC3(C)C)n2)c1 [Compound 1927, 6-(3-methoxyphenyl)-N-[(2-oxo-1H-pyridin-3-yl)sulfonyl]-2-[(4S)-2,2,4-trimethylpyrrolidin-1-yl]pyridine-3-carboxamide] | +++ (“+++” means <3 uM)
16 | CC(C)COc1cc(F)cc(-c2ccc(C(=O)NS(=O)(=O)c3cccc(N)n3)c(N3CCC3(C)C)n2)c1 [Compound 1928, N-[(6-amino-2-pyridyl)sulfonyl]-2-(2,2-dimethylazetidin-1-yl)-6-(3-fluoro-5-isobutoxy-phenyl)pyridine-3-carboxamide] | ++ (“++” means between 3 uM and 10 uM)
17 | CC1CN(c2ncccc2C(=O)NS(=O)(=O)c2cccc(OCc3ccc(Cl)cc3Cl)n2)C(C)(C)C1 (stereo not shown) [Compound 1929, N—[[6-[(2,4-dichlorophenyl)methoxy]-2-pyridyl]sulfonyl]-2-(2,2,4-trimethylpyrrolidin-1-yl)pyridine-3-carboxamide] | +++ (“+++” means <3 uM)
18 | Cc1cc(-c2ccc(C(=O)NS(=O)(=O)c3cccc(N)n3)c(N3C[C@@H](C)CC3(C)C)n2)ccc1F [Compound 1930, N-[(6-amino-2-pyridyl)sulfonyl]-6-(4-fluoro-3-methyl-phenyl)-2-[(4S)-2,2,4-trimethylpyrrolidin-1-yl]pyridine-3-carboxamide] | +++ (“+++” means <3 uM)
19 | CCOc1cc(-c2ccc(C(=O)NS(=O)(=O)c3cccc(N)n3)c(N3C[C@@H](C)CC3(C)C)n2)cc(C)c1C [Compound 1931, N-[(6-amino-2-pyridyl)sulfonyl]-6-(3-ethoxy-4,5-dimethyl-phenyl)-2-[(4S)-2,2,4-trimethylpyrrolidin-1-yl]pyridine-3-carboxamide] | +++ (“+++” means <3 uM)
20 | CC1CN(c2ncccc2C(=O)NS(=O)(=O)c2cccc(N3CCCCCC3)n2)C(C)(C)C1 (stereo not shown) [Compound 1932, N—[[6-(azepan-1-yl)-2-pyridyl]sulfonyl]-2-(2,2,4-trimethylpyrrolidin-1-yl)pyridine-3-carboxamide] | +++ (“+++” means <3 uM)
21 | CC1CN(c2ncccc2C(=O)NS(=O)(=O)c2cccc(Nc3cc4ccccc4cn3)n2)C(C)(C)C1 (stereo not shown) [Compound 1933, N—[[6-(3-isoquinolylamino)-2-pyridyl]sulfonyl]-2-(2,2,4-trimethylpyrrolidin-1-yl)pyridine-3-carboxamide] | +++ (“+++” means <3 uM)
22 | C[C@@H]1CN(c2nc(-c3cccc(OC(F)(F)F)c3)ccc2C(=O)NS(=O)(=O)c2ccc[nH]c2=O)C(C)(C)C1 [Compound 1934, N-[(2-oxo-1H-pyridin-3-yl)sulfonyl]-6-[3-(trifluoromethoxy)phenyl]-2-[(4S)-2,2,4-trimethylpyrrolidin-1-yl]pyridine-3-carboxamide] | +++ (“+++” means <3 uM)
23 | CC(C)COc1cc(F)cc(-c2ccc(C(=O)NS(=O)(=O)N[C@H]3CCNC3)c(N3C[C@@H](C)CC3(C)C)n2)c1 [Compound 1935, 6-(3-fluoro-5-isobutoxy-phenyl)-N—[[(3S)-pyrrolidin-3-yl]sulfamoyl]-2-[(4S)-2,2,4-trimethylpyrrolidin-1-yl]pyridine-3-carboxamide] | +++ (“+++” means <3 uM)
24 | CC1CN(c2ncccc2C(=O)NS(=O)(=O)c2cccc(OC3(C)CCCC3)n2)C(C)(C)C1 (stereo not shown) [Compound 1936, N—[[6-(1-methylcyclopentoxy)-2-pyridyl]sulfonyl]-2-(2,2,4-trimethylpyrrolidin-1-yl)pyridine-3-carboxamide] | +++ (“+++” means <3 uM)
25 | CC1CN(c2ncccc2C(=O)NS(=O)(=O)c2cccc(N3CCN(CC4OCCO4)CC3)n2)C(C)(C)C1 (stereo not shown) [Compound 1937, N—[[6-[4-(1,3-dioxolan-2-ylmethyl)piperazin-1-yl]-2-pyridyl]sulfonyl]-2-(2,2,4-trimethylpyrrolidin-1-yl)pyridine-3-carboxamide] | ++ (“++” means between 3 uM and 10 uM)
26 | CC1CN(c2ncccc2C(=O)NS(=O)(=O)c2cccc(NCc3ccccc3)n2)C(C)(C)C1 (stereo not shown) [Compound 1938, N—[[6-(benzylamino)-2-pyridyl]sulfonyl]-2-(2,2,4-trimethylpyrrolidin-1-yl)pyridine-3-carboxamide] | +++ (“+++” means <3 uM)
27 | CC1CN(c2ncccc2C(=O)NS(=O)(=O)c2cccc(OCC3CCCCO3)n2)C(C)(C)C1 (stereo not shown) [Compound 1939, N—[[6-(tetrahydropyran-2-ylmethoxy)-2-pyridyl]sulfonyl]-2-(2,2,4-trimethylpyrrolidin-1-yl)pyridine-3-carboxamide] | ++ (“++” means between 3 uM and 10 uM)
28 | COc1cccc(CN(C)c2cccc(S(=O)(=O)NC(=O)c3cccnc3N3CC(C)CC3(C)C)n2)c1 (stereo not shown) [Compound 1940, N—[[6-[(3-methoxyphenyl)methyl-methyl-amino]-2-pyridyl]sulfonyl]-2-(2,2,4-trimethylpyrrolidin-1-yl)pyridine-3-carboxamide] | +++ (“+++” means <3 uM)
